Experimental data reported in US20110034714A1, “METAL COMPLEX COMPOUND, CANCER THERAPEUTIC AGENT COMPOSITION CONTAINING THE METAL COMPLEX COMPOUND AS AN ACTIVE INGREDIENT, AND INTERMEDIATE FOR THE METAL COMPLEX COMPOUND” (priority 2007, published 2011).

What was measured:
Format in all cases: in vivo
human tumor SC-6-JCK = experiment: Anti-tumor action in nude mice transplanted with human tumor SC-6-JCK; conditions: SC-6-JCK tumor-bearing nude mice, 7.0 mg and 10.0 mg/kg, tail vein, 3 times at 4 days' intervals
Method: (§1) Using nude mice transplanted with human tumors SC-6-JCK and Lu-24, the anti-tumor action of the substance having the structure below (Compound 44), among the compounds of the present invention, was investigated. Each of SC-6-JCK and Lu-24 was subcutaneously implanted in nude mice, and, when the tumor volumes reached to 100 to 300 mm^3, 7.0 mg and 10.0 mg/kg of the present test substance were respectively administered to the SC-6-JCK tumor-bearing mice, and 10.0 mg and 12.0 mg/kg of the present test substance were respectively administered to the Lu-24 tumor-bearing mice, from the tail vein 3 times intermittently at 4 days' intervals.

human tumor Lu-24 = experiment: Anti-tumor action in nude mice transplanted with human tumor Lu-24; conditions: Lu-24 tumor-bearing nude mice, 10.0 mg and 12.0 mg/kg, tail vein, 3 times at 4 days' intervals
Method: as §1

[1] = BUN (blood urea nitrogen) as an index of nephrotoxicity in tumor-bearing nude mice; conditions: 4 days after completion of the administration; SC-6-JCK and Lu-24 tumor-bearing nude mice
Method: as §1

CCOP1(=O)CP(=O)(OCC)[O][Pt]([NH2])([NH2])[O]1 (stereo not drawn) [Compound 44]
suppression of the tumor volume (human tumor SC-6-JCK): suppression of the tumor volume was observed in a dose-dependent manner | suppression of the tumor volume (human tumor Lu-24): suppression of the tumor volume was observed in a dose-dependent manner | BUN (blood urea nitrogen) as an index of nephrotoxicity [1]: an increase of the BUN value was not observed
